Measurements as given in ChEMBL document CHEMBL1201862, “PubChem BioAssay data set” (2004).
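Exposure lasted 48 hours, with cells grown in 96-well plates and compounds tested at five concentrations. At the GI50, growth is halved.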 Activity calls are given as the source filed them. Rule as the data show it: active = GI50 up to about 1.1 µM and inactive = higher.

How the values were obtained:
Assay in all cases: DTP human tumour cell line panel, 48 h
786-0 = test system: 786-0
A498 = test system: A498
A549 = test system: A549
ACHN = test system: ACHN
BT-549 = test system: BT-549
CAKI-1 = test system: CAKI-1
CCRF-CEM = test system: CCRF-CEM
COLO 205 = test system: COLO 205
DU-145 = test system: DU-145
EKVX = test system: EKVX
HCC 2998 = test system: HCC 2998
HCT-116 = test system: HCT-116
HCT-15 = test system: HCT-15
HL-60 = test system: HL-60
HOP-62 = test system: HOP-62
HOP-92 = test system: HOP-92
Hs-578T = test system: Hs-578T
K562 = test system: K562
KM12 = test system: KM12
LOX IMVI = test system: LOX IMVI
M14 = test system: M14
MCF7 = test system: MCF7
MDA-MB-231 = test system: MDA-MB-231
MDA-MB-435 = test system: MDA-MB-435
MDA-N = test system: MDA-N
MOLT-4 = test system: MOLT-4
Malme-3M = test system: Malme-3M
NCI-H226 = test system: NCI-H226
NCI-H23 = test system: NCI-H23
NCI-H460 = test system: NCI-H460
NCI-H522 = test system: NCI-H522
NCI/ADR-RES = test system: NCI/ADR-RES
OVCAR-3 = test system: OVCAR-3
OVCAR-4 = test system: OVCAR-4
OVCAR-5 = test system: OVCAR-5
OVCAR-8 = test system: OVCAR-8
RPMI-8226 = test system: RPMI-8226
RXF 393 = test system: RXF 393
SF-268 = test system: SF-268
SF-295 = test system: SF-295
SF-539 = test system: SF-539
SK-MEL-28 = test system: SK-MEL-28
SK-MEL-2 = test system: SK-MEL-2
SK-MEL-5 = test system: SK-MEL-5
SK-OV-3 = test system: SK-OV-3
SN12C = test system: SN12C
SNB-19 = test system: SNB-19
SW-620 = test system: SW-620
T47D = test system: T47D
TK-10 = test system: TK-10
U-251 = test system: U-251
UACC-257 = test system: UACC-257
UACC-62 = test system: UACC-62
UO-31 = test system: UO-31
HT-29 = test system: HT-29
IGROV-1 = test system: IGROV-1
SNB-75 = test system: SNB-75

How did the GI50 (786-0) turn out when COc1cc(/C=C2/SC(c3ccccc3)N(c3cccc([N+](=O)[O-])c3)C2=O)cc(OC)c1OC (stereo not drawn) was run?
Its GI50 is > 100 µM (inactive).

What about the GI50 (A498) of the same compound?
The GI50 was > 100 µM (inactive).

What about the GI50 (A549) of the same compound?
The GI50 was > 100 µM (inactive).

What about the GI50 (ACHN) of the same compound?
Its GI50 is > 100 µM (inactive).

What about the GI50 (BT-549) of the same compound?
The GI50 was > 100 µM (inactive).

What about the GI50 (CAKI-1) of the same compound?
The GI50 was > 100 µM (inactive).

What about the GI50 (CCRF-CEM) of the same compound?
Its GI50 is 22.2 µM (inactive).

What about the GI50 (COLO 205) of the same compound?
The GI50 was > 100 µM (inactive).

And the GI50 (DU-145)?
Its GI50 is > 100 µM (inactive).

And the GI50 (EKVX)?
Its GI50 is > 100 µM (inactive).

What about the GI50 (HCC 2998) of the same compound?
The GI50 was > 100 µM (inactive).

What about the GI50 (HCT-116) of the same compound?
Its GI50 is 61.4 µM (inactive).

What about the GI50 (HCT-15) of the same compound?
Its GI50 is greater than 100 µM.

What about the GI50 (HL-60) of the same compound?
Its GI50 is 60.8 µM (inactive).

And the GI50 (HOP-62)?
The GI50 was > 100 µM (inactive).

What about the GI50 (HOP-92) of the same compound?
The GI50 was > 100 µM (inactive).

And the GI50 (Hs-578T)?
Its GI50 is > 100 µM (inactive).

And the GI50 (K562)?
The GI50 was > 100 µM (inactive).

And the GI50 (KM12)?
Its GI50 is 95.1 µM (inactive).

What about the GI50 (LOX IMVI) of the same compound?
Its GI50 is > 100 µM (inactive).

And the GI50 (M14)?
The GI50 was > 100 µM (inactive).

What about the GI50 (MCF7) of the same compound?
The GI50 was 46.2 µM (inactive).

What about the GI50 (MDA-MB-231) of the same compound?
Its GI50 is > 100 µM (inactive).

And the GI50 (MDA-MB-435)?
The GI50 was 26.9 µM (inactive).

And the GI50 (MDA-N)?
The GI50 was 25.1 µM (inactive).

What about the GI50 (MOLT-4) of the same compound?
Its GI50 is > 100 µM (inactive).

And the GI50 (Malme-3M)?
Its GI50 is 82.8 µM (inactive).

What about the GI50 (NCI-H226) of the same compound?
The GI50 was > 100 µM (inactive).

And the GI50 (NCI-H23)?
The GI50 was > 100 µM (inactive).

And the GI50 (NCI-H460)?
Its GI50 is > 100 µM (inactive).

What about the GI50 (NCI-H522) of the same compound?
The GI50 was 60.5 µM (inactive).

What about the GI50 (NCI/ADR-RES) of the same compound?
Its GI50 is > 100 µM (inactive).

What about the GI50 (OVCAR-3) of the same compound?
Its GI50 is > 100 µM (inactive).

What about the GI50 (OVCAR-4) of the same compound?
The GI50 was > 100 µM (inactive).

What about the GI50 (OVCAR-5) of the same compound?
The GI50 was > 100 µM (inactive).

And the GI50 (OVCAR-8)?
Its GI50 is > 100 µM (inactive).

And the GI50 (RPMI-8226)?
The GI50 was > 100 µM (inactive).

And the GI50 (RXF 393)?
Its GI50 is > 100 µM (inactive).

And the GI50 (SF-268)?
The GI50 was > 100 µM (inactive).

And the GI50 (SF-295)?
Its GI50 is > 100 µM (inactive).

What about the GI50 (SF-539) of the same compound?
The GI50 was > 100 µM (inactive).

And the GI50 (SK-MEL-28)?
Its GI50 is 55.5 µM (inactive).

What about the GI50 (SK-MEL-2) of the same compound?
The GI50 was > 100 µM (inactive).

What about the GI50 (SK-MEL-5) of the same compound?
The GI50 was 50.1 µM (inactive).

And the GI50 (SK-OV-3)?
The GI50 was > 100 µM (inactive).

And the GI50 (SN12C)?
The GI50 was > 100 µM (inactive).

What about the GI50 (SNB-19) of the same compound?
Its GI50 is > 100 µM (inactive).

And the GI50 (SW-620)?
Its GI50 is 74.5 µM (inactive).

What about the GI50 (T47D) of the same compound?
Its GI50 is 97.5 µM (inactive).

What about the GI50 (TK-10) of the same compound?
The GI50 was > 100 µM (inactive).

What about the GI50 (U-251) of the same compound?
Its GI50 is > 100 µM (inactive).

What about the GI50 (UACC-257) of the same compound?
The GI50 was > 100 µM (inactive).

What about the GI50 (UACC-62) of the same compound?
Its GI50 is 95.3 µM (inactive).

And the GI50 (UO-31)?
Its GI50 is > 100 µM (inactive).

Which GI50 (786-0) does the source give for CC(NC(=O)/C(=C/c1ccccc1O)NC(=O)c1ccccc1)C(=O)O (stereo not drawn) here?
The GI50 was 24.9 µM (inactive).

And the GI50 (A498)?
The GI50 was > 100 µM (inactive).

And the GI50 (A549)?
Its GI50 is 43.1 µM (inactive).

And the GI50 (ACHN)?
The GI50 was 19.1 µM (inactive).

And the GI50 (BT-549)?
The GI50 was 18.9 µM (inactive).

And the GI50 (CAKI-1)?
Its GI50 is 19 µM (inactive).

And the GI50 (CCRF-CEM)?
Its GI50 is > 100 µM (inactive).

What about the GI50 (COLO 205) of the same compound?
Its GI50 is > 100 µM (inactive).

What about the GI50 (DU-145) of the same compound?
The GI50 was 45.6 µM (inactive).

And the GI50 (EKVX)?
The GI50 was 18.8 µM (inactive).

What about the GI50 (HCC 2998) of the same compound?
The GI50 was 9.23 µM (inactive).

What about the GI50 (HCT-116) of the same compound?
Its GI50 is 33.2 µM (inactive).

What about the GI50 (HCT-15) of the same compound?
Its GI50 is 24.1 µM.

And the GI50 (HL-60)?
Its GI50 is > 100 µM (inactive).

And the GI50 (HOP-92)?
Its GI50 is 22.2 µM (inactive).

And the GI50 (HT-29)?
Its GI50 is 73.5 µM (inactive).

And the GI50 (Hs-578T)?
Its GI50 is 17.4 µM (inactive).

And the GI50 (IGROV-1)?
The GI50 was 17.9 µM (inactive).

What about the GI50 (K562) of the same compound?
The GI50 was > 100 µM (inactive).

What about the GI50 (KM12) of the same compound?
The GI50 was 16.8 µM (inactive).

What about the GI50 (LOX IMVI) of the same compound?
Its GI50 is 33.2 µM (inactive).

And the GI50 (M14)?
Its GI50 is 51.3 µM (inactive).

What about the GI50 (MCF7) of the same compound?
The GI50 was 5.85 µM (inactive).

What about the GI50 (MDA-MB-231) of the same compound?
The GI50 was 22 µM (inactive).

And the GI50 (MDA-MB-435)?
Its GI50 is 27.8 µM (inactive).

And the GI50 (MDA-N)?
The GI50 was 8.13 µM (inactive).

And the GI50 (MOLT-4)?
The GI50 was > 100 µM (inactive).

What about the GI50 (Malme-3M) of the same compound?
Its GI50 is 21 µM (inactive).

What about the GI50 (NCI-H226) of the same compound?
The GI50 was 14 µM (inactive).

What about the GI50 (NCI-H23) of the same compound?
Its GI50 is > 100 µM (inactive).

What about the GI50 (NCI-H460) of the same compound?
Its GI50 is 24.5 µM (inactive).

And the GI50 (NCI-H522)?
The GI50 was 18.5 µM (inactive).

And the GI50 (NCI/ADR-RES)?
Its GI50 is 12.7 µM (inactive).

What about the GI50 (OVCAR-4) of the same compound?
The GI50 was 40.4 µM (inactive).

And the GI50 (OVCAR-5)?
The GI50 was > 100 µM (inactive).

What about the GI50 (OVCAR-8) of the same compound?
Its GI50 is 15.7 µM (inactive).

What about the GI50 (RPMI-8226) of the same compound?
Its GI50 is > 100 µM (inactive).

And the GI50 (RXF 393)?
The GI50 was 21.8 µM (inactive).

And the GI50 (SF-268)?
Its GI50 is 15.8 µM (inactive).

And the GI50 (SF-295)?
The GI50 was 21.4 µM (inactive).

What about the GI50 (SF-539) of the same compound?
The GI50 was 18.1 µM (inactive).

What about the GI50 (SK-MEL-28) of the same compound?
The GI50 was > 100 µM (inactive).

And the GI50 (SK-MEL-5)?
Its GI50 is 55.2 µM (inactive).

What about the GI50 (SK-OV-3) of the same compound?
Its GI50 is 19.4 µM (inactive).

What about the GI50 (SN12C) of the same compound?
The GI50 was 21.6 µM (inactive).

What about the GI50 (SNB-19) of the same compound?
Its GI50 is 20.6 µM (inactive).

What about the GI50 (SNB-75) of the same compound?
Its GI50 is 15.4 µM (inactive).

And the GI50 (SW-620)?
The GI50 was > 100 µM (inactive).

What about the GI50 (T47D) of the same compound?
The GI50 was 13.2 µM (inactive).

What about the GI50 (TK-10) of the same compound?
The GI50 was 44.3 µM (inactive).

And the GI50 (U-251)?
Its GI50 is 50.5 µM (inactive).

What about the GI50 (UACC-257) of the same compound?
The GI50 was 70 µM (inactive).

What about the GI50 (UACC-62) of the same compound?
Its GI50 is 26 µM (inactive).

And the GI50 (UO-31)?
Its GI50 is 17.5 µM (inactive).
